# Assay results from US8247377B2, “Non-steroidal glucocorticoid inhibitors and their use in treating inflammation, allergy and auto-immune conditions” (Glaxo Group Limited, priority 2006, dated 2012).
# Target: T1, glucocorticoid receptor (Homo sapiens, UniProt P04150)
# T1 construct: a partially purified full length glucocorticoid receptor
# T1 sequence (P04150 1-777): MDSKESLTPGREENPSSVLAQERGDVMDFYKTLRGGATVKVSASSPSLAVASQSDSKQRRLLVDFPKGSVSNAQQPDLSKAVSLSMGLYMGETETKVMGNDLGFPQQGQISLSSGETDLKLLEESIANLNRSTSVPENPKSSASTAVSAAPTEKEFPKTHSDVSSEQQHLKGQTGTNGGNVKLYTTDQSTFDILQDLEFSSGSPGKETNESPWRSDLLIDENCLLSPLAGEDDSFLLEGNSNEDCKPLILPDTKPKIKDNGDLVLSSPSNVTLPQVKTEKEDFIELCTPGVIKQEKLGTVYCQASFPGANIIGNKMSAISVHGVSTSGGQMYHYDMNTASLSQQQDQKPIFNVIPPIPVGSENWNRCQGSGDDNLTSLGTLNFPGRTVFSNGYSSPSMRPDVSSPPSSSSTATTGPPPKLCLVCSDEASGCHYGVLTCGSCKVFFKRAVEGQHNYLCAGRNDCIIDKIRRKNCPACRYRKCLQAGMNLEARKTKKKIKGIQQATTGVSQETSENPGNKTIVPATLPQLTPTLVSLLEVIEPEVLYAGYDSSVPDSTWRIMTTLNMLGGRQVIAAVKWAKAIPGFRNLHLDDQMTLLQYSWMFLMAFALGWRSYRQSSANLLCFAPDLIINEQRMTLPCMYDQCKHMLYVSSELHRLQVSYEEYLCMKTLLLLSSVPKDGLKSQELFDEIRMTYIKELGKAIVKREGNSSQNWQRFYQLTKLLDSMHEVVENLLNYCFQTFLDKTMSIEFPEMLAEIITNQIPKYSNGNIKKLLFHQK
# Assay: Glucocorticoid receptor binding assay (fluorescence polarisation)
# Details: competition with Alexa 555 fluorescently-labelled dexamethasone derivative, full length glucocorticoid receptor; read-out: glucocorticoid binding pIC50 (converted)
# Method in brief: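 Compounds in DMSO incubated with fluorescent dexamethasone and partially purified full-length GR plus stabilising buffer components, 2 hrs at room temperature in the dark. Displacement read as decrease in fluorescence polarisation; pIC50 estimated from dose-response curves.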
row,SMILES,IC50
1,"CN(CC(O)(CNC(=O)c1cnn(-c2ccc(F)cc2)c1N)C(F)(F)F)C(=O)c1c(F)cccc1C(F)(F)F (racemic) [Example 21 (racemic), 5-amino-1-(4-fluorophenyl)-N-(3,3,3-trifluoro-2-{[{[2-fluoro-6-(trifluoromethyl)phenyl]carbonyl}(methyl)amino]methyl}-2-hydroxypropyl)-1H-pyrazole-4-carboxamide]",≤ 0.316 µM
2,"CN(CC(O)(CNC(=O)c1cnn(-c2ccc(F)cc2)c1N)C(F)(F)F)C(=O)c1c(C(F)(F)F)cccc1C(F)(F)F (racemic) [Example 22 (racemic), 5-amino-N-(2-{[{[2,6-bis(trifluoromethyl)phenyl]carbonyl}(methyl)amino]methyl}-3,3,3-trifluoro-2-hydroxypropyl)-1-(4-fluorophenyl)-1H-pyrazole-4-carboxamide]",≤ 0.316 µM
3,"CCN(CC(O)(CNC(=O)c1cnn(-c2ccc(F)cc2)c1N)C(F)(F)F)C(=O)c1c(F)cccc1C(F)(F)F (racemic) [Example 23 (racemic), 5-amino-N-{2-[(ethyl{[2-fluoro-6-(trifluoromethyl)phenyl]carbonyl}amino)methyl]-3,3,3-trifluoro-2-hydroxypropyl}-1-(4-fluorophenyl)-1H-pyrazole-4-carboxamide]",≤ 0.316 µM
4,"CCN(CC(O)(CNC(=O)c1cnn(-c2ccc(F)cc2)c1N)C(F)(F)F)C(=O)c1c(Cl)cccc1Br (racemic) [Example 24 (racemic), 5-amino-N-(2-{[[(2-bromo-6-chlorophenyl)carbonyl](ethyl)amino]methyl}-3,3,3-trifluoro-2-hydroxypropyl)-1-(4-fluorophenyl)-1H-pyrazole-4-carboxamide]",≤ 0.316 µM
5,"CCN(CC(O)(CNC(=O)c1cnn(-c2ccc(F)cc2)c1N)C(F)(F)F)C(=O)c1c(Cl)cccc1OC(F)F (racemic) [Example 25 (racemic), 5-amino-N-(2-{[({2-chloro-6-[(difluoromethyl)oxy]phenyl}carbonyl)(ethyl)amino]methyl}-3,3,3-trifluoro-2-hydroxypropyl)-1-(4-fluorophenyl)-1H-pyrazole-4-carboxamide]",≤ 0.316 µM
6,"CCN(CC(O)(CNC(=O)c1cnn(-c2ccc(F)cc2)c1N)C(F)(F)F)C(=O)c1c(OC(F)F)cccc1OC(F)F (racemic) [Example 26 (racemic), 5-amino-N-(2-{[({2,6-bis[(difluoromethyl)oxy]phenyl}carbonyl)(ethyl)amino]methyl}-3,3,3-trifluoro-2-hydroxypropyl)-1-(4-fluorophenyl)-1H-pyrazole-4-carboxamide]",≤ 0.316 µM
7,"CCN(CC(O)(CNC(=O)c1cnn(-c2ccc(F)cc2)c1N)C(F)(F)F)C(=O)c1c(C(F)(F)F)cccc1C(F)(F)F (racemic) [Example 27 (racemic), 5-amino-N-(2-{[{[2,6-bis(trifluoromethyl)phenyl]carbonyl}(ethyl)amino]methyl}-3,3,3-trifluoro-2-hydroxypropyl)-1-(4-fluorophenyl)-1H-pyrazole-4-carboxamide]",≤ 0.316 µM
8,"Nc1c(C(=O)NCC(O)(CN(CCF)C(=O)c2c(Cl)cccc2Cl)C(F)(F)F)cnn1-c1ccc(F)cc1 (racemic) [Example 28 (racemic), 5-amino-N-(2-{[[(2,6-dichlorophenyl)carbonyl](2-fluoroethyl)amino]methyl}-3,3,3-trifluoro-2-hydroxypropyl)-1-(4-fluorophenyl)-1H-pyrazole-4-carboxamide]",≤ 0.316 µM
9,"Nc1c(C(=O)NCC(O)(CN(CCF)C(=O)c2c(Cl)cccc2Br)C(F)(F)F)cnn1-c1ccc(F)cc1 (racemic) [Example 30 (racemic), 5-amino-N-(2-{[[(2-bromo-6-chlorophenyl)carbonyl](2-fluoroethyl)amino]methyl}-3,3,3-trifluoro-2-hydroxypropyl)-1-(4-fluorophenyl)-1H-pyrazole-4-carboxamide]",≤ 0.316 µM
10,"Nc1c(C(=O)NCC(O)(CN(CCF)C(=O)c2c(Cl)cccc2OC(F)F)C(F)(F)F)cnn1-c1ccc(F)cc1 (racemic) [Example 31 (racemic), 5-amino-N-(2-{[({2-chloro-6-[(difluoromethyl)oxy]phenyl}carbonyl)(2-fluoroethyl)amino]methyl}-3,3,3-trifluoro-2-hydroxypropyl)-1-(4-fluorophenyl)-1H-pyrazole-4-carboxamide]",≤ 0.316 µM
11,"CCN(CC(O)(CNC(=O)c1cnn(-c2ccc(F)c(F)c2)c1N)C(F)(F)F)C(=O)c1c(F)cccc1F (racemic) [Example 33 (racemic), 5-amino-1-(3,4-difluorophenyl)-N-(2-{[[(2,6-difluorophenyl)carbonyl](ethyl)amino]methyl}-3,3,3-trifluoro-2-hydroxypropyl)-1H-pyrazole-4-carboxamide]",≤ 0.316 µM
12,"CCN(CC(O)(CNC(=O)c1cnn(-c2ccc(F)cc2F)c1N)C(F)(F)F)C(=O)c1c(F)cccc1F (racemic) [Example 34 (racemic), 5-amino-1-(2,4-difluorophenyl)-N-(2-{[[(2,6-difluorophenyl)carbonyl](ethyl)amino]methyl}-3,3,3-trifluoro-2-hydroxypropyl)-1H-pyrazole-4-carboxamide]",≤ 0.316 µM
13,"CCN(CC(O)(CNC(=O)c1cnn(-c2cc(F)cc(F)c2)c1N)C(F)(F)F)C(=O)c1c(F)cccc1F (racemic) [Example 35 (racemic), 5-amino-1-(3,5-difluorophenyl)-N-(2-{[[(2,6-difluorophenyl)carbonyl](ethyl)amino]methyl}-3,3,3-trifluoro-2-hydroxypropyl)-1H-pyrazole-4-carboxamide]",≤ 0.316 µM
14,"CCN(CC(O)(CNC(=O)c1cnn(-c2cc(F)ccc2F)c1N)C(F)(F)F)C(=O)c1c(F)cccc1F (racemic) [Example 36 (racemic), 5-amino-1-(2,5-difluorophenyl)-N-(2-{[[(2,6-difluorophenyl)carbonyl](ethyl)amino]methyl}-3,3,3-trifluoro-2-hydroxypropyl)-1H-pyrazole-4-carboxamide]",≤ 0.316 µM
15,"CCN(CC(O)(CNC(=O)c1cnn(-c2c(F)cccc2F)c1N)C(F)(F)F)C(=O)c1c(F)cccc1F (racemic) [Example 37 (racemic), 5-amino-1-(2,6-difluorophenyl)-N-(2-{[[(2,6-difluorophenyl)carbonyl](ethyl)amino]methyl}-3,3,3-trifluoro-2-hydroxypropyl)-1H-pyrazole-4-carboxamide]",≤ 0.316 µM
16,"CCN(CC(O)(CNC(=O)c1cnn(-c2cccc(F)c2)c1N)C(F)(F)F)C(=O)c1c(F)cccc1F (racemic) [Example 38 (racemic), 5-amino-N-(2-{[[(2,6-difluorophenyl)carbonyl](ethyl)amino]methyl}-3,3,3-trifluoro-2-hydroxypropyl)-1-(3-fluorophenyl)-1H-pyrazole-4-carboxamide]",≤ 0.316 µM
17,"CCN(CC(O)(CNC(=O)c1cnn(-c2ccc(Cl)cc2)c1N)C(F)(F)F)C(=O)c1c(F)cccc1F (racemic) [Example 39 (racemic), 5-amino-1-(4-chlorophenyl)-N-(2-{[[(2,6-difluorophenyl)carbonyl](ethyl)amino]methyl}-3,3,3-trifluoro-2-hydroxypropyl)-1H-pyrazole-4-carboxamide]",≤ 0.316 µM
18,"CCN(CC(O)(CNC(=O)c1cnn(-c2cccc(Cl)c2)c1N)C(F)(F)F)C(=O)c1c(F)cccc1F (racemic) [Example 41 (racemic), 5-amino-1-(3-chlorophenyl)-N-(2-{[[(2,6-difluorophenyl)carbonyl](ethyl)amino]methyl}-3,3,3-trifluoro-2-hydroxypropyl)-1H-pyrazole-4-carboxamide]",≤ 0.316 µM
19,"CCN(CC(O)(CNC(=O)c1cnn(-c2ccccc2F)c1N)C(F)(F)F)C(=O)c1c(F)cccc1F (racemic) [Example 42 (racemic), 5-amino-N-(2-{[[(2,6-difluorophenyl)carbonyl](ethyl)amino]methyl}-3,3,3-trifluoro-2-hydroxypropyl)-1-(2-fluorophenyl)-1H-pyrazole-4-carboxamide]",≤ 0.316 µM
20,"Nc1c(C(=O)NCC(O)(CNC(=O)c2c(C(F)F)cccc2C(F)F)C(F)(F)F)cnn1-c1ccc(F)cc1 (racemic) [Example 43 (racemic), 5-Amino-N-{2-[({[2,6-bis(difluoromethyl)phenyl]carbonyl}amino)methyl]-3,3,3-trifluoro-2-hydroxypropyl}-1-(4-fluorophenyl)-1H-pyrazole-4-carboxamide]",≤ 0.316 µM
21,"Nc1c(C(=O)NCC(O)(CNC(=O)c2c(Br)cccc2C(F)(F)F)C(F)(F)F)cnn1-c1ccc(F)cc1 (racemic) [Example 45 (racemic), 5-Amino-N-{2-[({[2-bromo-6-(trifluoromethyl)phenyl]carbonyl}amino)methyl]-3,3,3-trifluoro-2-hydroxypropyl}-1-(4-fluorophenyl)-1H-pyrazole-4-carboxamide]",≤ 0.316 µM
